# Entries after “also recorded” stand apart in the source; their conditions may differ.
# Tested on: SS cells
# Assay: Antisickling activity under anoxia (100% N2)
# Format: cell-based, human
# Conditions: 2 mM, 100% N2 gas, 30 min
# Text: Therefore, another objective in the targeted design of VZHE-039 was to complement its O2-dependent antisickling activity—common to this class of aromatic aldehydes—with an improved O2-independent antisickling activity through proximity-enhanced auxiliary interactions with the αF-helix. Findings from the VZHE-039 crystallographic studies indicate that we achieved the structural objective of enhanced interactions between the methylhydroxy substituent and the αF-helix. We further asked whether these enhanced interactions would translate to an improvement in the O2-independent antisickling activity—as hypothesized. We therefore explored the potential O2-independent activity of VZHE-039, by testing its antisickling properties under complete deoxygenated/anoxic conditions (i.e., 100% N2). […] For internal control purposes, aliquots from samples used for testing for antisickling studies at 2.5% O2 (see above) were also used for testing the antisickling effect of these compounds under 100% N2 gas, therefore, helping elucidate the antisickling effects due to O2-dependent activity of the compounds. Since this experimental design utilized aliquots of the same samples under different gas conditions, it ensured that the assay was free of any potential errors associated with variability in hematocrit and accuracy in drug concentrations.
# We conducted two studies to test the antisickling property of VZHE-039 under anoxia to establish the secondary mechanism of action. In the first study, we conducted antisickling studies as described above and also previously reported (2.5% O2)[33], using 2 mM concentrations of VZHE-039, and the controls vanillin, TD-7 and Voxelotor. After 1 h, aliquot samples were fixed with 2% glutaraldehyde without exposure to air. Then the incubation chamber was opened and exposed to air for 15 min to ensure complete re-oxygenation and reversal of the sickled cells to normal round cells. Reversal was confirmed by microscopy. The incubation chamber was then closed, and the assay was repeated under 100% nitrogen gas for 30 min, at which point aliquots were obtained and fixed. Aliquot samples were then subjected to microscopic morphological analysis of bright field images as previously described. Resulting sickled cells (percentages) were compared across samples, and between aliquots of the same samples that had been obtained either under 2.5% oxygen or 100% nitrogen.
compound,measurement,value
"O=Cc1c(O)cccc1OCc1cccc(CO)n1 [VZHE-039, 2-((6-(Hydroxymethyl)pyridin-2-yl)methoxy)-6-hydroxybenzaldehyde]",Antisickling effect under anoxia (in words),inhibited sickling under complete anoxia; also recorded: identical antisickling effects for VZHE-039 under either hypoxia or anoxia

# — publication PMC7679387, “VZHE-039, a novel antisickling agent that prevents erythrocyte sickling under both hypoxic and anoxic conditions” (Scientific Reports, 2020)
